The text below walks through data of patent publication US7968532B2 (Besins Healthcare Luxembourg, priority 2003, dated 2011).

Where two headings read alike, the source gives them in different places. Bounds are passed on as bounds.

The nature of data set [1]: Follow-up study: percutaneous Z-[^3H]-4-hydroxy tamoxifen or Z-[^3H]-tamoxifen on the breast before surgery; tissue, plasma, urine radioactivity. As to conditions: for Share of radioactivity in blood: 24 hours after percutaneous 4-hydroxy tamoxifen.
Method: (§1) The patients received [^3H]-labeled drug applied directly on the affected breasts at specified intervals ranging from 12 hours to 7 days before surgery to excise diseased tissue. Breast tissue from three regions: the tumor, tissue immediately surrounding the tumor, and normal tissue, was excised and immediately frozen in liquid nitrogen. Additionally, plasma and urine samples were obtained at scheduled intervals and frozen until analysis.
For data set [2] the following is noted: in vivo.
Method: as §1
For data set [3] the following is noted: one person in Group 2 (0.5 mg/day gel, seventh day); one person in Group 1 (oral tamoxifen, fifth day); cited from earlier work.
Data set [4] deals with rat liver. As to conditions: cited from earlier work.
A short description of data set [5]: Pharmacokinetics of 4-hydroxy tamoxifen gel in healthy premenopausal women. The class given is in vivo, human.
Method: (§2) Each participant applied the gel daily for the duration of two menstrual cycles.
At the end of a menstrual cycle, each patient received a single dose, after which serial blood samples were collected at 0, 0.5, 1, 1.5, 2, 3, 4, 6, 12, 18, 24, 36, 48, and 72 hours.
(§3) On the first day of the following menstruation, treatment, which consisted of daily application of the gel over two menstrual cycles, began. Blood samples were collected 24 hours following the morning application of gel on days 7, 20 and 25 of the first and second cycles. On the last day of administration, day 25 of the second menstrual cycle, serial blood samples were collected prior to application and at 0.5, 1, 1.5, 2, 3, 4, 6, 12, 18, 24, 36, 48, and 72 hours after application of the gel.
For data set [6] the following is noted: topical application.
Method: as §2, §3
The conditions of data set [7]: human, in vivo; cited from earlier work.

Take `CCC(=C(c1ccc(O)cc1)c1ccc(O)cc1)c1ccccc1` [Bisphenol]: the “Share of radioactivity in blood” value in data set [1] came to 11%.

On to `CC/C(=C(\c1ccc(O)cc1)c1ccc(OCCN(C)C)cc1)c1ccccc1` [Z-4-hydroxy tamoxifen], for which the “Percentage of radioactivity in breast tissue as Z and E isomer” value in data set [2] came to 32%.

`CC/C(=C(/c1ccc(O)cc1)c1ccc(OCCN(C)C)cc1)c1ccccc1` (single isomer, unassigned) [E isomer]: the “Percentage of radioactivity in breast tissue as Z and E isomer” value in data set [1] (day 7 after percutaneous administration) amounted to 33%.

As to `CC/C(=C(\c1ccccc1)c1ccc(OCCN(C)C)cc1)c1ccccc1` [tamoxifen, reference compound], the Reported side effects result in data set [3] was “hot flashes and mild vaginitis”. Moreover, in data set [4], the Rat liver carcinogen entry was “is a potent rat liver carcinogen”.

In the case of `CCC(=C(c1ccc(O)cc1)c1ccc(OCCNC)cc1)c1ccccc1` [N-Desmethyl-4-Hydroxy Tamoxifen], the “Share of radioactivity in blood” value in data set [1] came out at 18%.

In the case of `CCC(=C(c1ccc(O)cc1)c1ccc(OCCN(C)C)cc1)c1ccccc1` [4-hydroxy tamoxifen, 1-[4-(2-N-dimethylaminoethoxy)phenyl]-1-(4-hydroxyphenyl)-2-phenylbut-1-ene], the “Metabolism in cytosolic and nuclear fractions of breast tissue” value in data set [2] is recorded as “remained unmetabolized except for limited isomerization from the Z to the E form”. Further, the “Share of radioactivity in blood” value in data set [2] turned out to be 68%. Further, the “Subcellular distribution in breast tissue” value in data set [2] is “concentrated predominantly in the cytosolic and nuclear fractions of breast tissue”. Moreover, the “Time of plateau of radioactivity in blood” value in data set [2] was in the range of 4 to 6 days. The “Plasma concentration of 4-hydroxy tamoxifen, Mean ± SD (Range)” value in data set [5] (0.5 mg/day, gel 20 mg/100 g, n=12, First cycle Day 1, 0 hr) is “(0-17.2) pg/mL”; in data set [5] (0.5 mg/day, gel 20 mg/100 g, n=12, Second cycle, +8 days, LOQ <5 pg/mL) it was “<LOQ”; in data set [5] (0.5 mg/day, gel 20 mg/100 g, n=12, Second cycle, +12 days (maximum)), no more than 9.09 pg/mL; in data set [5] (0.5 mg/day, gel 20 mg/100 g, n=12, Second cycle, +20 days), 0 pg/mL; in data set [5] (1 mg/day, gel 20 mg/100 g, n=8, First cycle Day 1, 0 hr) it was “(0-13.9) pg/mL”; in data set [5] (1 mg/day, gel 20 mg/100 g, n=8, Second cycle, +20 days, LOQ <5 pg/mL), “<LOQ”. The “Plasma concentration of 4-hydroxy tamoxifen, Mean ± SD (Range)” value in data set [5] (1 mg/day, gel 57 mg/100 g, n=12, First cycle Day 1, 0 hr) is listed as “(0-9.5) pg/mL”; in data set [5] (1 mg/day, gel 57 mg/100 g, n=12, Second cycle, +8 days), “(0-14.8) pg/mL”; in data set [5] (2 mg/day, gel 57 mg/100 g, n=12, First cycle Day 1, 0 hr), “(0-0) pg/mL”; in data set [5] (2 mg/day, gel 57 mg/100 g, n=12, Second cycle, +12 days), “(0-30.4) pg/mL”. Also, the Systemic effects entry in data set [6] is recorded as “no detectable laboratory or clinical evidence of systemic effects”. Moreover, the “Radioactivity in excised tissue and normal breast tissue surrounding the tumor” value in data set [7] is on record as “contained radioactivity”. Further, the Rat liver carcinogen entry in data set [4] (in vivo) is recorded as “not”.
